# Legend:
# hen's egg white lysozyme = assay: Activity test of lysozyme X-irradiated in the presence of additives added before irradiation (a.r.); type: biochemical; conditions: X (1000 Gy); a.r. additive 10 mM; lysozyme 0.1 mg/ml; unirradiated lysozyme = 100%
# Procedure: The hen's egg white lysozyme was purchased from Serva (Heidelberg, Germany), additives and all other substances were of the highest available grade. Lysozyme (0.1 mg/ml) and the additives (10 mM, except otherwise stated) were dissolved in dilute, air-saturated 1 mM sodium phosphate buffer pH 6.5 and were irradiated at 25° C. with X-rays (0-1 kGy) in the absence or presence of the additives. Activity tests of the lysozyme were performed as described in Shugar, 1952. The measurement of lysozyme activity and the ultra-violet inactivation of lysozyme. Biochim. Biophys. Acta 8, 302-309. were recorded in a Jasco UV/VIS spectrophotometer V-530. The activity test of lysozyme is simple and straightforward. The method described by Shugar uses the diluted unirradiated or irradiated enzyme and a cell suspension of Micrococcus lysodeikticus in a special activity buffer (66 mM sodium phosphate buffer with 17 mM NaCl, pH 7.0). The bacterium is suspended in an Erlenmeyer flask in the activity buffer at a concentration of 0.2 mg/ml. Before using the bacterial suspension in the test, the flask has to be swivelled to ensure homogeneous pipetting into the cuvette. Working briskly, the enzyme sample was pipetted to the bacterial solution, and using parafilm to tightly seal the cuvette, was homogeneously hand-mixed. Typical test mixtures (total of 3 ml) consisted of 2.98 ml bacterial solution plus 0.02 ml unirradiated enzyme sample in the absence or presence of additives, and 2.95 ml bacterial solution plus 0.05 ml irradiated enzyme (250 Gy) in the absence of additives, and 2.6 ml bacterial solution plus 0.4 ml irradiated enzyme (1000 Gy) in the absence of additives, to allow reasonable handling of the samples. The decrease in absorbance resulting from a breakdown of the bacteria by the enzyme is measured in a 3-ml cuvette in a spectrophotometer at a wavelength of 450 nm for a continuous time period of 3 min at 25° C. Different decreases in absorbance reflect different activities. The test may also be applied for lysozyme in the presence of antioxidants, since, owing to the high dilution of the samples (lysozyme+antioxidants) in the test and the wavelength used, the antioxidants will not disturb the results of the activity measurement. No further separation techniques are needed. Irradiations were performed in small 2-ml plastic cups at 25° C. The dosage measurement of X-rays was obtained by Fricke dosimetry (ferrous sulfate dosimetry). […] Afterwards the irradiated lysozyme was used in the activity assay as described in example 2 to determine the activity of the lysozyme. For comparison, activities are given in percent. The native, unirradiated lysozyme is used as reference and is considered to have 100% activity. […]
# [1] = tested on: hydrogen peroxide in the blood of mice; assay: Hydrogen peroxide concentration in blood of 6 Gy irradiated mice (d-ROMs test); type: in vivo, C57BL/6 mice; conditions: Example 7; for Hydrogen peroxide concentration: three times in 24 h interval before 6 Gy, blood 72 h after irradiation
# Procedure: For the following experiments C57BL/6 mice (21 gram body weight) were purchased from Japan SLC (Shizuoka, Japan). The mice were used for the experiments with an age of 8 weeks.
# In this Experiment Six Groups were Built, Wherein Each Group Comprises 6 Mice: • a) the first group of mice were not treated and built the negative control, • b) the second group of mice built the positive control, thus the mice were treated with 6 Gy radiation and 72 hours after irradiation blood sampling was performed, • c) the third group of mice was treated with 150 mg Vitamin C per kg body weight, • d) the forth group of mice was treated with 15 mg Vitamin C per kg body weight, and • e) the fifth group of mice was treated with 15 mg of the composition in Example 6 per kg body weight.
# The following experiment was performed for the first, second and fifth group in three independent experiments, for the third group in two independent experiments and for the forth group in one experiment.
# Each mouse was placed in a well-ventilated acrylic container. The composition in Example 6 and Vitamin C, respectively suspended in 0.5 ml water was orally administered three times in a 24 hours interval to the mice of the third to fifth group. 24 hours after the third administration mice were exposed to 6 Gy whole body irradiation (WBI), given at a dose rate of 0.45 Gy/min at 150 kV and 5 mA (HITACHI MBR-1505R2, Tokyo, Japan). The beam was filtered through a 2 mm aluminum board. 72 hours after irradiation blood sampling was performed.
# The d-ROMs (Reactive Oxygen Metabolites) test by using Free Carpe Diem photometric analytical system (Diacron, Grosseto, Italy) was used for the measurement of free radical metabolites in the blood samples of the mice. It is a spectrophotometric method that assesses overall oxidative stress by measuring total hydroperoxide levels, given that hydroperoxides are intermediate oxidative products of lipids, peptides, and amino acids. Briefly, 0.02 ml plasma was diluted in 1 ml acetate-buffered solution. Hydroperoxide groups react with the transition metal ions liberated from the proteins in the acidic medium, and are converted to alkoxyl and peroxyl radicals according to the Fenton reaction. These newly formed radicals, the quantities of which are directly proportional to those of the peroxides, were trapped chemically with 0.02 ml chromogen (N, N-diethyl-para-phenylendiamine), leading to the formation of the radical cation of this chromogen. The purple color resulting from this reaction over time was monitored in a spectrophotometer (Wismarll FRAS4, Tokyo, Japan) at 505 nm. The results of this method were expressed in μmol per liter. […]
# c) the fifth group of mice, comprising 12 mice, was treated with 15 mg of a composition similar to that of Example 8 containing cysteine instead of cystine per kg body weight by oral administration, and
# d) the sixth group of mice, comprising 12 mice, was treated with 15 mg of the composition according to Example 8 per kg body weight by intra-peritoneal administration.
# Each mouse was placed in a well-ventilated acrylic container. The mice representing the positive control were exposed to 6 Gy whole body irradiation (WBI), given at a dose rate of 0.45 Gy/min at 150 kV and 5 mA (HITACHI MBR-1505R2, Tokyo, Japan). The beam was filtered through a 2 mm aluminum board. 72 hours after irradiation blood sampling was performed.
# The composition in Example 8 was orally administered three times in a 24 hours interval to the mice of the second group in the concentration of 15 mg composition per kg body weight, i.e. the mice were pre-treated 3 days with the composition of Example 8 before irradiation. 24 hours after the third administration mice were irradiated using conditions as for positive control. 72 hours after irradiation blood sampling was performed. […]
SMILES,% Activity (hen's egg white lysozyme) [%],"Difference (increase vs positive control) ([1]; 15 mg/kg oral, three times before 6 Gy, positive control 144.7) [µmol/L]","Increase rate ([1]; 15 mg/kg oral, three times before 6 Gy, relative to radiation-induced increase 19.7 μmol/l, listed as Vitamin C, 15 mg/kg) [%]",Hydrogen peroxide concentration ([1]; 15 mg/kg oral) [µmol/L],"Difference (decrease vs positive control) ([1]; 150 mg/kg oral, three times before 6 Gy, positive control 144.7) [µmol/L]","Reduction rate ([1]; 150 mg/kg oral, three times before 6 Gy, relative to radiation-induced increase 19.7 μmol/l, listed as Vitamin C, 150 mg/kg) [%]",Hydrogen peroxide concentration ([1]; 150 mg/kg oral) [µmol/L]
O=C1O[C@H]([C@@H](O)CO)C(O)=C1O [Ascorbic acid],90,5.1,25.89,149.6,3.8,19.29,140.5
"N[C@@H](CCC(=O)N[C@@H](CS)C(=O)NCC(=O)O)C(=O)O [Glutathione, glutathione]",58,–,–,–,–,–,–
"OC[C@@H](O)[C@@H](O)[C@H](O)[C@H](O)CO [Mannitol, mannitol]",51,–,–,–,–,–,–
"O=C[O-].[Na+] [Sodium-Formate, sodium-formate]",75,–,–,–,–,–,–

# From patent US9089548B2, “Composition for protection against cell-damaging effects” (TIMA FOUNDATION, priority 2011, dated 2015)
